Assay results published in patent US11254665B2, “Crystalline sulfamide compound” (CHIA TAI TIANQING PHARMACEUTICAL GROUP CO., LTD., priority 2017, dated 2022).

What was measured:
Type in all cases: physicochemical
[1] = Stability influencing factors: high temperature test
Experimental: (§1) In accordance with “Stability Testing of New Drug Substances and Products” in ICH Q1A and “Guidelines for the Stability Testing of Drug Substances and Preparations” in Pharmacopoeia of China, fourth part, 2015 edition, 9001, the stability influencing factors were tested for the crystal of the monohydrate formula II, including high temperature, high humidity and light tests.
(§2) In accordance with “Stability Testing of New Drug Substances and Products” in ICH Q1A and “Guidelines for the Stability Testing of Drug Substances and Preparations” in Pharmacopoeia of China, fourth part, 2015 edition, 9001, the stability influencing factors were tested for the crystal of the compound of formula I, including high temperature and high humidity tests.
(§3) In accordance with “Stability Testing of New Drug Substances and Products” in ICH Q1A and “Guidelines for the Stability Testing of Drug Substances and Preparations” in Pharmacopoeia of China, fourth part, 2015 edition, 9001, the stability influencing factors were tested for the amorphous form of the compound of formula I, including high temperature and high humidity tests.

[2] = Stability influencing factors: high humidity test
Experimental: as §1, §2, §3

[3] = Stability influencing factors: light test
Experimental: as §1

N#Cc1ccnc(N2[C@H](C(=O)N(c3cccc(F)c3)[C@H](C(=O)NC3CC(F)(F)C3)c3ccccc3Cl)CCS2(=O)=O)c1 [amorphous form of the compound of formula I]
Appearance ([1]; 0 day): White | Total impurities (%) ([1]; 0 day): 0.28% | Water (%) ([1]; 0 day): 1.4% | Appearance ([1]; 40° C., 5 day): White | Total impurities (%) ([1]; 40° C., 5 day): 0.25% | Water (%) ([1]; 40° C., 5 day): 1.1% | Appearance ([1]; 40° C., 10 day): White | Total impurities (%) ([1]; 40° C., 10 day): 0.28% | Water (%) ([1]; 40° C., 10 day): 1.0% | Appearance ([1]; 40° C., 30 day): White | Total impurities (%) ([1]; 40° C., 30 day): 0.26% | Water (%) ([1]; 40° C., 30 day): 0.8% | Appearance ([1]; 60° C., 5 day): White | Total impurities (%) ([1]; 60° C., 5 day): 0.31% | Water (%) ([1]; 60° C., 5 day): 0.8% | Appearance ([1]; 60° C., 10 day): White | Total impurities (%) ([1]; 60° C., 10 day): 0.27% | Water (%) ([1]; 60° C., 10 day): 0.6% | Appearance ([1]; 60° C., 30 day): White | Total impurities (%) ([1]; 60° C., 30 day): 0.28% | Water (%) ([1]; 60° C., 30 day): 0.5% | Appearance ([2]; 0 day): White | Total impurities (%) ([2]; 0 day): 0.28% | Water (%) ([2]; 0 day): 1.4% | Appearance ([2]; 75% RH, 5 day): White | Total impurities (%) ([2]; 75% RH, 5 day): 0.30% | Water (%) ([2]; 75% RH, 5 day): 1.7% | Appearance ([2]; 75% RH, 10 day): White | Total impurities (%) ([2]; 75% RH, 10 day): 0.30% | Water (%) ([2]; 75% RH, 10 day): 1.8% | Appearance ([2]; 75% RH, 30 day): White | Total impurities (%) ([2]; 75% RH, 30 day): 0.27% | Water (%) ([2]; 75% RH, 30 day): 1.8% | Appearance ([2]; 92.5% RH, 5 day): White | Total impurities (%) ([2]; 92.5% RH, 5 day): 0.30% | Water (%) ([2]; 92.5% RH, 5 day): 2.1% | Appearance ([2]; 92.5% RH, 10 day): White | Total impurities (%) ([2]; 92.5% RH, 10 day): 0.29% | Water (%) ([2]; 92.5% RH, 10 day): 2.3% | Appearance ([2]; 92.5% RH, 30 day): White | Total impurities (%) ([2]; 92.5% RH, 30 day): 0.26% | Water (%) ([2]; 92.5% RH, 30 day): 2.4%

N#Cc1ccnc(N2[C@H](C(=O)N(c3cccc(F)c3)[C@H](C(=O)NC3CC(F)(F)C3)c3ccccc3Cl)CCS2(=O)=O)c1 [crystal of the compound of formula I]
Appearance ([1]; 0 day): White | Total impurities (%) ([1]; 0 day): 0.39% | Water (%) ([1]; 0 day): 0.45% | Appearance ([1]; 40° C., 5 day): White | Total impurities (%) ([1]; 40° C., 5 day): 0.42% | Water (%) ([1]; 40° C., 5 day): 0.85% | Appearance ([1]; 40° C., 12 day): White | Total impurities (%) ([1]; 40° C., 12 day): 0.37% | Water (%) ([1]; 40° C., 12 day): 0.85% | Appearance ([1]; 60° C., 5 day): White | Total impurities (%) ([1]; 60° C., 5 day): 0.63% | Water (%) ([1]; 60° C., 5 day): 0.59% | Appearance ([1]; 60° C., 12 day): White | Total impurities (%) ([1]; 60° C., 12 day): 0.54% | Water (%) ([1]; 60° C., 12 day): 0.73% | Appearance ([2]; 0 day): White | Total impurities (%) ([2]; 0 day): 0.39% | Water (%) ([2]; 0 day): 0.45% | Appearance ([2]; 75% RH, 5 day): White | Total impurities (%) ([2]; 75% RH, 5 day): 0.43% | Water (%) ([2]; 75% RH, 5 day): 0.94% | Appearance ([2]; 75% RH, 12 day): White | Total impurities (%) ([2]; 75% RH, 12 day): 0.37% | Water (%) ([2]; 75% RH, 12 day): 1.16% | Appearance ([2]; 92.5% RH, 5 day): White | Total impurities (%) ([2]; 92.5% RH, 5 day): 0.47% | Water (%) ([2]; 92.5% RH, 5 day): 1.58% | Appearance ([2]; 92.5% RH, 12 day): White | Total impurities (%) ([2]; 92.5% RH, 12 day): 0.37% | Water (%) ([2]; 92.5% RH, 12 day): 1.75%

N#Cc1ccnc(N2[C@H](C(=O)N(c3cccc(F)c3)[C@H](C(=O)NC3CC(F)(F)C3)c3ccccc3Cl)CCS2(=O)=O)c1 [crystal of the monohydrate of formula II]
Appearance ([1]; 0 day): White | Enantiomers (%) ([1]; 0 day): 0.01% | Total impurities (%) ([1]; 0 day): 0.38% | Total of diastereoisomers (%) ([1]; 0 day): 0.05% | Water (%) ([1]; 0 day): 3.10% | Appearance ([1]; 40° C., 5 day): White | Enantiomers (%) ([1]; 40° C., 5 day): 0.01% | Total impurities (%) ([1]; 40° C., 5 day): 0.45% | Total of diastereoisomers (%) ([1]; 40° C., 5 day): 0.05% | Water (%) ([1]; 40° C., 5 day): 2.69% | Appearance ([1]; 40° C., 10 day): White | Enantiomers (%) ([1]; 40° C., 10 day): 0.01% | Total impurities (%) ([1]; 40° C., 10 day): 0.47% | Total of diastereoisomers (%) ([1]; 40° C., 10 day): 0.05% | Water (%) ([1]; 40° C., 10 day): 2.45% | Appearance ([1]; 60° C., 5 day): White | Total impurities (%) ([1]; 60° C., 5 day): 0.48% | Total of diastereoisomers (%) ([1]; 60° C., 5 day): 0.05% | Water (%) ([1]; 60° C., 5 day): 2.67% | Appearance ([1]; 60° C., 10 day): White | Enantiomers (%) ([1]; 60° C., 10 day): 0.01% | Total impurities (%) ([1]; 60° C., 10 day): 0.47% | Total of diastereoisomers (%) ([1]; 60° C., 10 day): 0.05% | Water (%) ([1]; 60° C., 10 day): 2.51% | Appearance ([2]; 0 day): White | Enantiomers (%) ([2]; 0 day): 0.01% | Total impurities (%) ([2]; 0 day): 0.38% | Total of diastereoisomers (%) ([2]; 0 day): 0.05% | Water (%) ([2]; 0 day): 3.10% | Appearance ([2]; 75% RH, 5 day): White | Enantiomers (%) ([2]; 75% RH, 5 day): 0.01% | Total impurities (%) ([2]; 75% RH, 5 day): 0.44% | Total of diastereoisomers (%) ([2]; 75% RH, 5 day): 0.05% | Water (%) ([2]; 75% RH, 5 day): 2.69% | Appearance ([2]; 75% RH, 10 day): White | Enantiomers (%) ([2]; 75% RH, 10 day): 0.01% | Total impurities (%) ([2]; 75% RH, 10 day): 0.50% | Total of diastereoisomers (%) ([2]; 75% RH, 10 day): 0.05% | Water (%) ([2]; 75% RH, 10 day): 2.53% | Appearance ([2]; 92.5% RH, 5 day): White | Enantiomers (%) ([2]; 92.5% RH, 5 day): 0.01% | Total impurities (%) ([2]; 92.5% RH, 5 day): 0.49% | Total of diastereoisomers (%) ([2]; 92.5% RH, 5 day): 0.04% | Water (%) ([2]; 92.5% RH, 5 day): 2.72% | Appearance ([2]; 92.5% RH, 10 day): White | Enantiomers (%) ([2]; 92.5% RH, 10 day): 0.01% | Total impurities (%) ([2]; 92.5% RH, 10 day): 0.49% | Total of diastereoisomers (%) ([2]; 92.5% RH, 10 day): 0.05% | Water (%) ([2]; 92.5% RH, 10 day): 2.42% | Appearance ([3]; 0 day): White | Enantiomers (%) ([3]; 0 day): 0.01% | Total impurities (%) ([3]; 0 day): 0.38% | Total of diastereoisomers (%) ([3]; 0 day): 0.05% | Water (%) ([3]; 0 day): 3.10% | Appearance ([3]; Lighting, 5 day): White | Enantiomers (%) ([3]; Lighting, 5 day): 0.01% | Total impurities (%) ([3]; Lighting, 5 day): 0.56% | Total of diastereoisomers (%) ([3]; Lighting, 5 day): 0.05% | Water (%) ([3]; Lighting, 5 day): 2.72% | Appearance ([3]; Lighting, 10 day): White | Enantiomers (%) ([3]; Lighting, 10 day): 0.01% | Total impurities (%) ([3]; Lighting, 10 day): 0.63% | Total of diastereoisomers (%) ([3]; Lighting, 10 day): 0.05% | Water (%) ([3]; Lighting, 10 day): 2.47% | Appearance ([3]; shading, 5 day): White | Enantiomers (%) ([3]; shading, 5 day): 0.01% | Total impurities (%) ([3]; shading, 5 day): 0.49% | Total of diastereoisomers (%) ([3]; shading, 5 day): 0.05% | Water (%) ([3]; shading, 5 day): 2.73% | Appearance ([3]; shading, 10 day): White | Enantiomers (%) ([3]; shading, 10 day): 0.01% | Total impurities (%) ([3]; shading, 10 day): 0.47% | Total of diastereoisomers (%) ([3]; shading, 10 day): 0.05% | Water (%) ([3]; shading, 10 day): 2.55%
